Assay results as given in ChEMBL document CHEMBL1152094, “Res-701-1, synthesis and a reevaluation of its effects on the endothelin receptors” (Bioorg Med Chem Lett, 1995).
Starred links: 1 amine or outer side, 2 acyl side, 3 side chain; linkers in the order of their positions; H or OH if unused. Non-standard residues stand in square brackets, D forms with d. Residues, ends and D or L forms follow the SMILES beside them. X1 = O=C([C@@H](N[*:1])C1c2ccccc2CCc2ccccc21)[*:2]

Experiments:
[1] = molecular target: T1, Endothelin receptor type B (Homo sapiens, UniProt P24530); assay: Binding affinity in Chinese hamster ovary (CHO) cells stably transfected with human endothelin B (ETB) receptor; assay type: cell-based
T1 sequence (P24530 whole entry): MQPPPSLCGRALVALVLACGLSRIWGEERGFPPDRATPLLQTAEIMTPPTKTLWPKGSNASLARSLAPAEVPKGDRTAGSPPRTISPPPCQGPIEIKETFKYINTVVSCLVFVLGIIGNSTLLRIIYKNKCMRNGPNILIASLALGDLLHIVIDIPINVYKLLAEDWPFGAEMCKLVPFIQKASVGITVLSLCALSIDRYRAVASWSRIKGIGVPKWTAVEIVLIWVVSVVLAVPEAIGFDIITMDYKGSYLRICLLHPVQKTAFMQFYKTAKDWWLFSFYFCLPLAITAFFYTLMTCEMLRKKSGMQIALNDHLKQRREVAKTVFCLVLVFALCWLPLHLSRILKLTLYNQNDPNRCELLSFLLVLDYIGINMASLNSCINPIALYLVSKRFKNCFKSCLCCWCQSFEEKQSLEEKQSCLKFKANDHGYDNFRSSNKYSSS

Endothelin-1 receptor = molecular target: T2, Endothelin-1 receptor (Homo sapiens, UniProt P25101); assay: Binding affinity in LtK cells stably transfected with human endothelin A (ETA) receptor; assay type: cell-based
T2 sequence (P25101 whole entry): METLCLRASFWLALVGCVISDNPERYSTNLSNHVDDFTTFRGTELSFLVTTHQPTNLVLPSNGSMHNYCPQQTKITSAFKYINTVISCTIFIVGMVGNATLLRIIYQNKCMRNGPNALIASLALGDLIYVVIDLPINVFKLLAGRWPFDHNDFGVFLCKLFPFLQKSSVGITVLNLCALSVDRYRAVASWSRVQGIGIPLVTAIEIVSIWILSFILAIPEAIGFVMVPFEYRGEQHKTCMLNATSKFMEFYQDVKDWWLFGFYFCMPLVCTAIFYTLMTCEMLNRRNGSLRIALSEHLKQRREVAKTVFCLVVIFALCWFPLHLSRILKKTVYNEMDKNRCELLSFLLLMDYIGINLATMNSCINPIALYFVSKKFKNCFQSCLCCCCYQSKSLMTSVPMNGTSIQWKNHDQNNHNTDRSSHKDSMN

SMILES | IC50 [1] [µM] | IC50 (Endothelin-1 receptor) [µM]
C[C@H](NC(=O)[C@@H](NC(=O)CNC(=O)[C@H](Cc1c[nH]cn1)NC(=O)[C@@H](N)Cc1c[nH]c2ccccc12)[C@@H](C)O)C(=O)N1CCC[C@H]1C(=O)N[C@@H](CC(=O)O)C(=O)N[C@@H](Cc1c[nH]c2ccccc12)C(=O)N[C@@H](Cc1ccccc1)C(=O)N[C@@H](Cc1ccccc1)C(=O)N[C@@H](CC(N)=O)C(=O)N[C@@H](Cc1ccc(O)cc1)C(=O)N[C@@H](Cc1ccc(O)cc1)C(=O)N[C@@H](Cc1c[nH]c2ccccc12)C(=O)O (H-WHGTAPDWFFNYYW-OH) | > 2.5 | > 2.5
C[C@@H]1NC(=O)[C@H]([C@@H](C)O)NC(=O)CNC(=O)[C@H](Cc2c[nH]cn2)NC(=O)[C@H](Cc2c[nH]c3ccccc23)NC(=O)[C@H](CC(N)=O)NC(=O)CNC(=O)C[C@@H](C(=O)N[C@@H](Cc2c[nH]c3ccccc23)C(=O)N[C@@H](Cc2ccccc2)C(=O)N[C@@H](Cc2ccccc2)C(=O)N[C@@H](CC(N)=O)C(=O)N[C@@H](Cc2ccc(O)cc2)C(=O)N[C@@H](Cc2ccc(O)cc2)C(=O)N[C@@H](Cc2c[nH]c3ccccc23)C(=O)O)NC(=O)[C@@H]2CCCN2C1=O (stereo in doubt; 1) | 0.01 | > 5
C[C@H](NC(=O)[C@@H](NC(=O)CNC(=O)[C@H](Cc1c[nH]cn1)NC(=O)[C@H](Cc1c[nH]c2ccccc12)NC(=O)[C@H](CC(N)=O)NC(=O)CN)[C@@H](C)O)C(=O)N1CCC[C@H]1C(=O)N[C@@H](CC(=O)O)C(=O)N[C@@H](Cc1c[nH]c2ccccc12)C(=O)N[C@@H](Cc1ccccc1)C(=O)N[C@@H](Cc1ccccc1)C(=O)N[C@@H](CC(N)=O)C(=O)N[C@@H](Cc1ccc(O)cc1)C(=O)N[C@@H](Cc1ccc(O)cc1)C(=O)N[C@@H](Cc1c[nH]c2ccccc12)C(=O)O | > 2.5 | > 2.5
C[C@@H]1NC(=O)[C@H]([C@@H](C)O)NC(=O)CNC(=O)[C@H](Cc2c[nH]cn2)NC(=O)[C@H](Cc2c[nH]c3ccccc23)NC(=O)[C@H](CC(N)=O)NC(=O)CNC(=O)C[C@@H](C(=O)N[C@@H](Cc2c[nH]c3ccccc23)C(=O)N[C@@H](Cc2ccccc2)C(=O)N[C@@H](Cc2ccccc2)C(=O)N[C@@H](CC(N)=O)C(=O)N[C@@H](Cc2ccc(O)cc2)C(=O)N[C@@H](Cc2ccc(O)cc2)C(=O)N[C@@H](Cc2c[nH]c3ccccc23)C(=O)O)NC(=O)[C@@H]2CCCN2C1=O (stereo in doubt; 2) | 6.5 | 7.8
NC(=O)C[C@H](NC(=O)[C@H](Cc1ccccc1)NC(=O)[C@@H](N)Cc1ccccc1)C(=O)N[C@@H](Cc1ccc(O)cc1)C(=O)N[C@@H](Cc1ccc(O)cc1)C(=O)N[C@@H](Cc1c[nH]c2ccccc12)C(=O)O (H-FFNYYW-OH) | > 25 | > 25

Further compounds by falling IC50 [1], results first:

IC50 [1] [µM] | IC50 (Endothelin-1 receptor) [µM] | SMILES
15 | 2.4 | NC(=O)C[C@H](NC(=O)[C@H](Cc1ccccc1)NC(=O)[C@H](Cc1ccccc1)NC(=O)[C@@H](N)Cc1c[nH]c2ccccc12)C(=O)N[C@@H](Cc1ccc(O)cc1)C(=O)N[C@@H](Cc1ccc(O)cc1)C(=O)N[C@@H](Cc1c[nH]c2ccccc12)C(=O)O (H-WFFNYYW-OH)
14 | 8.1 | CC(=O)N[C@H](Cc1c[nH]c2ccccc12)C(=O)N[C@@H](Cc1ccccc1)C(=O)N[C@@H](Cc1ccccc1)C(=O)N[C@@H](CC(N)=O)C(=O)N[C@@H](Cc1ccc(O)cc1)C(=O)N[C@@H](Cc1ccc(O)cc1)C(=O)N[C@@H](Cc1c[nH]c2ccccc12)C(=O)O
13 | 9.5 | NC(=O)C[C@H](NC(=O)[C@H](Cc1ccccc1)NC(=O)[C@@H](N)C1c2ccccc2CCc2ccccc21)C(=O)N[C@@H](Cc1ccc(O)cc1)C(=O)N[C@@H](Cc1ccc(O)cc1)C(=O)N[C@@H](Cc1c[nH]c2ccccc12)C(=O)O (H-[X1]FNYYW-OH)
7.6 | 0.25 | CC(=O)N[C@@H](Cc1c[nH]c2ccccc12)C(=O)N[C@@H](Cc1ccccc1)C(=O)N[C@@H](Cc1ccccc1)C(=O)N[C@@H](CC(N)=O)C(=O)N[C@@H](Cc1ccc(O)cc1)C(=O)N[C@@H](Cc1ccc(O)cc1)C(=O)N[C@@H](Cc1c[nH]c2ccccc12)C(=O)O
4.3 | 1.9 | CC(=O)N[C@H](C(=O)N[C@@H](Cc1ccccc1)C(=O)N[C@@H](CC(N)=O)C(=O)N[C@@H](Cc1ccc(O)cc1)C(=O)N[C@@H](Cc1ccc(O)cc1)C(=O)N[C@@H](Cc1c[nH]c2ccccc12)C(=O)O)C1c2ccccc2CCc2ccccc21 (Ac-[X1]FNYYW-OH)
